Experimental data as given in patent US12037329B2, “SphK inhibitors and methods of making and using same” (Washington University, priority 2021, dated 2024).
“Also recorded” adds a separate entry of the source. Counter-ions that a name gives are not always drawn. Like-named read-outs stand apart in the source and are kept apart here. Values belong to the compound of their own block, whether it stands above or below them.

Experiments:
SphK2 [1] = molecular target: T1, SphK2 (Homo sapiens (Human), UniProt Q9NRA0); conditions: cited from earlier work
SphK2 [2] = molecular target: T1, SphK2; assay: ADP-Glo kinase assay, SphK2; format: biochemical; conditions: for IC50: ADP-Glo assay, 50 μM ATP, recombinant human SphK2; for selectivity/specificity for SphK2 over SphK1: 125 μM of each compound, SphK2 versus SphK1, FIG. 5
Description: The bioluminescence-based kinase assay such as ADP-Glo assay measures ADP formed from a kinase reaction with a luciferase. Upon the completion of a kinase reaction, the remaining ATP is depleted, the ADP produced in the kinase reaction is then converted to ATP and the detection is based on a sensitive and robust bioluminescence reaction. It has a broad linear range of ATP concentrations and high dynamic range. To determine the inhibition activity of the compounds, the ADP-Glo kinase assay was used which was able to detect down to 20% of 1 μM ATP to ADP conversion (FIG. 4A).
ADP-Glo (Promega, Madison, WI) kinase assay were used to evaluate the kinase activity of SphK. ATP to ADP standard curves were prepared in the kinase buffer to assess the linearity of the assay in order to calculate the amount of ADP produced in each tested conditions (FIG. 4A). SB10 (tenfold signal to background ra-tio) of SphK was also determined to evaluate the enzyme perfor-mance and to optimize the kinase reaction condition in this system. In brief, for SphK2, […], 100 μM of D-erythro-Sphingosine (Tocris Bioscience, Minneapolis, MN), and 2 ng of recombinant human SphK2 (R&D Systems, Minneapolis, MN) with desired concentration of each synthesized compound were used for SphK2 kinase reaction. For SphK1, exact same reaction condition was used except 0.5 ng of recombinant human SphK1 was used.
To evaluate the SphK selectivity of each compound, 125 μM of each compound in reaction buffer ([…] Tris, pH 8.0, […] MgCl2, and 0.1 mg/mL BSA) with 5% DMSO was incubated with either SphK1 or SphK2 in a 384-well solid white low volume microplate (Corning, Corning, NY), and the reaction was initiated by adding mixture of ATP and D-erythro-Sphingosine to a total volume of 5 μL, after 1 h incubation at room temperature with gentle shaking, the reaction was stopped by adding equal volume of ADP-Glo buffer and incubated for another hour to remove excess amount of ATP from the reaction. Afterwards, 10 μL of kinase detection reagent was added, mixed, and incubated for 30 min under dark. Luminescence output was recorded using a SpectraMax M5 Multi-Mode Microplate Readers (Molecular Devices, San Jose, CA), an integration time of 500 ms was used. All reactions were performed in triplicate. The enzyme activity of SphK in the presence of each compound was normalized to the no treatment control. […] The final data was calculated using Prism 7.0 (GraphPad Software, La Jolla, CA), IC50 was determined using Nonlinear regression (curve fit) four parameters dose-response calculations.

[3] = test system: U-251 MG human glioblastoma cells; assay: U-251 MG cell viability, Hoechst 33258/propidium iodide imaging, 125 μM, 24 h; format: cell-based
Method: Cells were seeded into a 96-well microplate (Corning, Corning, NY) at 3000 cells/well and incubated for approximately 16 h. […] Cells were imaged using MetaXpress High-Content Image Acquisition and Analysis Software 6.1 and ImageXpress Micro XLS Wide-field High-Content Analysis System (Molecular Devices, San Jose, CA). Images were taken with a Nikon 10 CFI Plan Fluor objective. For all samples, triplicated measurements were performed.

U-251 MG cells = assay: CellTiter96 MTS cell viability dose response, U-251 MG; format: cell-based, human; conditions: read-out: IC50 (cell viability)
Method: The anti-tumor activity of these inhibitors was further examined at different doses.
(§1) Cell viability was determined using CellTiter96 MTS Assay and compared to DMSO treated control cells. IC50 values were calculated by non-linear regression analysis of the dose-response curve using GraphPad Prism version 8.00 for Windows (GraphPad Software).

MDA-MB-453 cells = assay: CellTiter96 MTS cell viability dose response, MDA-MB-453; format: cell-based; conditions: Homo sapiens, MD-MB-453 (MDA-MB-453) cells
Method: (§2) The anti-tumor activity of these inhibitors was also examined in different cell types. U-251 MG cells, SiHa cells, BT20 cells, and MDA-MB-453 cells were treated with increasing dose (10^−10 M to 10^−4 M) of SphK2 inhibitor TZ72-53 (21b), and dose response curves were generated (FIG. 9). IC50 values of 21b in the four different cell lines were calculated by non-linear regression analysis of the dose-response curve and are shown in Table 5 below.
as §1

SiHa cells = assay: CellTiter96 MTS cell viability dose response, SiHa; format: cell-based; conditions: Homo sapiens
Method: as §2, §1

BT20 cells = assay: CellTiter96 MTS cell viability dose response, BT20; format: cell-based; conditions: Homo sapiens, BT-20
Method: as §2, §1

SphK1 = SphK1 (Homo sapiens (Human), UniProt Q9NYA1); conditions: cited from earlier work
Sequence of SphK1 (Q9NYA1 whole entry): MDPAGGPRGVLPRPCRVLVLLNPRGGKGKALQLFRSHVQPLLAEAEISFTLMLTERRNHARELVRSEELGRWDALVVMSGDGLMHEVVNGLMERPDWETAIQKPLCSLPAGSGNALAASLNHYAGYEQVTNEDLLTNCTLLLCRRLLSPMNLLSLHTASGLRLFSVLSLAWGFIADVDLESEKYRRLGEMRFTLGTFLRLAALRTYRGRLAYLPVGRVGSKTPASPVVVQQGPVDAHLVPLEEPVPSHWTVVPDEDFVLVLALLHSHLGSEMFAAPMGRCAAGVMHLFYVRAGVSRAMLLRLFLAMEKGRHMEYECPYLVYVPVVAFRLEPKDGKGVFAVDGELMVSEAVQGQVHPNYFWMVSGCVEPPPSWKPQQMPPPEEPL

T1 sequence (Q9NRA0 whole entry): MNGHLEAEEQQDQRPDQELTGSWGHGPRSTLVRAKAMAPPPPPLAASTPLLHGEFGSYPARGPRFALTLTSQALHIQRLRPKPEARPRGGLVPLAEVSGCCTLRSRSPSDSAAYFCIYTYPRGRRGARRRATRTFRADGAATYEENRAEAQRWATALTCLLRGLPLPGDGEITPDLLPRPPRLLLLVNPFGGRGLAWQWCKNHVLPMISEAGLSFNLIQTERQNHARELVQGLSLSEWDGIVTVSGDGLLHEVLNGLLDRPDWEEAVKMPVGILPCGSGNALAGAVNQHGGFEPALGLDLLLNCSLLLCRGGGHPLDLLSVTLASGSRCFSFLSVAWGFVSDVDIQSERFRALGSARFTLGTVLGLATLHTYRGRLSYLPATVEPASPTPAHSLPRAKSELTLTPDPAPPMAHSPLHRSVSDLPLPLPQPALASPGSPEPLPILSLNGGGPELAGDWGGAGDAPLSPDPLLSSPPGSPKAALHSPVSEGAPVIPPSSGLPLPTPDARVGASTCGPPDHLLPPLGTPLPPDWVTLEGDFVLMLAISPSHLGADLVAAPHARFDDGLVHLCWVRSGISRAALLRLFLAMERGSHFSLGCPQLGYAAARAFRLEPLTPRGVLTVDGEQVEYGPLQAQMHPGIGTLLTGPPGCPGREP

IC50 (SphK2 [2]): 0.28 µM
Compound: N=C(N)N1CCC[C@H]1Cc1nc(-c2ccc(Nc3nc(-c4cccc(C(F)(F)F)c4)cs3)cc2)no1 [Compound 13, reference compound]
Ki (SphK2 [1]; SphK2-selective inhibitors): 0.09 µM

Compound: Cl.N=C(N)N1CCC[C@H]1Cc1nc(-c2ccc(Cn3cc(-c4ccccc4)nn3)cc2)no1 [Compound 21a, (S)-2-((3-(4-((4-Phenyl-1H-1,2,3-triazol-1-yl)methyl)phenyl)-1,2,4-oxadiazol-5yl)methyl)pyrrolidine-1-carboximidamide hydrochloride]
antitumor activity / reduction of U-251 MG cell viability (in words) ([3]; hydrochloride): high anti-tumor activity; also recorded: significant reduction
IC50 (U-251 MG cells; Homo sapiens, U-251, 72 h): 17 µM
IC50 (SphK2 [2]): 0.396 µM

IC50 (U-251 MG cells; Homo sapiens, U-251 MG cells, 72 h, MTS): 11 µM
IC50 (MDA-MB-453 cells): 35.8 µM
IC50 (BT20 cells): 21.3 µM
SphK2 inhibitory activity (in words) (SphK2 [2]): no inhibitory activity
Compound: Cl.N=C(N)N1CCC[C@H]1Cc1nc(-c2ccc(Cn3cc(-c4ccc(C(F)(F)F)cc4)nn3)cc2)no1 [Compound 21b, (S)-2-((3-(4-((4-(4-(Trifluoromethyl)phenyl)-1H-1,2,3-triazol-1-yl)methyl)phenyl)-1,2,4-oxadiazol-5-yl)methyl)-pyrrolidine-1-carboximidamide hydrochloride]
antitumor activity / reduction of U-251 MG cell viability (in words) ([3]; hydrochloride): high anti-tumor activity; also recorded: significant reduction
IC50 (SiHa cells): 13 µM
selectivity/specificity for SphK2 over SphK1 (SphK2 [2]; hydrochloride): lowest specificity; also recorded: no selectivity

IC50 (SphK2 [2]): 0.64 µM
Compound: COc1ccc(-c2cn(Cc3ccc(-c4noc(C[C@@H]5CCCN5C(=N)N)n4)cc3)nn2)cc1.Cl [Compound 21e, (S)-2-((3-(4-((4-(4-Methoxyphenyl)-1H-1,2,3-triazol-1-yl)methyl)phenyl)-1,2,4-oxadiazol-5-yl)methyl)pyrrolidine-1-carboximidamide hydrochloride]
antitumor activity / reduction of U-251 MG cell viability (in words) [3]: comparable reduction
selectivity/specificity for SphK2 over SphK1 (SphK2 [2]; hydrochloride): high selectivity; also recorded: highest specificity

Compound: Cl.N=C(N)N1CCC[C@H]1c1nc(-c2ccc(Cn3cc(-c4ccc(C(F)(F)F)cc4)nn3)cc2)no1 [Compound 25b, (S)-2-((3-(4-((4-(4-(Trifluoromethyl)phenyl)-1H-1,2,3-triazol-1-yl)methyl)phenyl)-1,2,4-oxadiazol-5-yl)pyrrolidine-1-carboximidamide hydrochloride]
IC50 (U-251 MG cells; U-251 MG cells, 72 h, MTS): 12.3 µM
IC50 (SphK2 [2]): 0.359 µM

Compound: Cl.N=C(N)N1CCC[C@H]1c1nc(-c2ccc(Cn3cc(-c4ccc(C(F)(F)F)cc4)nn3)cc2)no1 [Compound 25b]
antitumor activity / reduction of U-251 MG cell viability (in words) ([3]; hydrochloride): high anti-tumor activity; also recorded: higher antitumor activity; also recorded: tremendously decreased; also recorded: significant reduction

Compound: COc1ccc(-c2cn(Cc3ccc(-c4noc([C@@H]5CCCN5C(=N)N)n4)cc3)nn2)cc1.Cl [Compound 25d, (S)-2-((3-(4-((4-(4-Methoxyphenyl)-1H-1,2,3-triazol-1-yl)methyl)phenyl)-1,2,4-oxadiazol-5-yl)-pyrrolidine-1-carboximidamide hydrochloride]
IC50 (U-251 MG cells; U-251 MG cells, 72 h, MTS): 78.2 µM
IC50 (SphK2 [2]): 0.266 µM

Compound: COc1ccc(-c2cn(Cc3ccc(-c4noc([C@@H]5CCCN5C(=N)N)n4)cc3)nn2)cc1.Cl [Compound 25d]
antitumor activity / reduction of U-251 MG cell viability (in words) [3]: comparable reduction

Compound: Cl.N=C(N)C1(c2nc(-c3ccc(Cn4cc(-c5ccccc5)nn4)cc3)no2)CC1 [Compound 29a, 1-(3-(4-((4-Phenyl-1H-1,2,3-triazol-1-yl)methyl)phenyl)-1,2,4-oxadiazol-5-yl)cyclopropanecarboximidamide hydrochloride]
selectivity/specificity for SphK2 over SphK1 (SphK2 [2]): highly selective
IC50 (SphK2 [2]): 0.261 µM

Compound: Cn1cc(-c2cn(Cc3ccc(-c4noc(C5(C(=N)N)CC5)n4)cc3)nn2)cn1 [Compound 29b, hydrochloride]
selectivity/specificity for SphK2 over SphK1 (SphK2 [2]): highly selective

IC50 (SphK2 [2]): 0.269 µM
Compound: Cn1nccc1-c1cn(Cc2ccc(-c3noc(C4(C(=N)N)CC4)n3)cc2)nn1 [Compound 29b, hydrochloride]

IC50 (SphK2 [2]): 0.717 µM
Compound: N=C(N)C1(c2nc(-c3ccc(Cn4cc(C5CC5)nn4)cc3)no2)CC1 [Compound 29c, 1-(3-(4-((4-Cyclopropyl-1H-1,2,3-triazol-1-yl)methyl)phenyl)-1,2,4-oxadiazol-5-yl)cyclopropanecarboximidamide hydrochloride]

Compound: Cc1ccc(S(=O)(=O)Nc2ccccc2C=Nc2ccccc2NS(=O)(=O)c2ccc(C)cc2)cc1 [MP-A08]
Ki (SphK2 [1]; human SphK2): 6.9 ± 0.8 µM
Ki (SphK1): 27 ± 3 µM

Compound: ABC294640 [Compound 7, reference compound]
reduction of viability of U-251 MG cells ([3]; versus no treatment control): approximately 50%
